row,logP,Structure (SMILES)
1,2.83,O=C1CC(Oc2cccc(C(=O)OCc3ccccc3)c2)N1 (stereo unspecified)
2,3.6,CC(C)(C)OC(=O)CN1C(=O)CC1Oc1ccc2ccccc2c1 (stereo unspecified)
3,2.66,O=C1CC(Oc2cccc3ccccc23)N1 (stereo unspecified)
4,1.83,O=C1CC(Oc2ccccc2C(=O)c2ccccc2)N1 (stereo unspecified)
5,2.31,O=C1CC(Sc2ccc(Cl)cc2)N1 (stereo unspecified)
6,2.8,CCOC(=O)CN1C(=O)CC1Oc1ccc2ccccc2c1 (stereo unspecified)
7,3,CCOC(=O)CN1C(=O)CC1Oc1ccc(C(=O)c2ccccc2)cc1 (stereo unspecified)
8,1.94,O=C1CC(Oc2ccccc2)N1 (stereo unspecified)
9,2.48,O=C1CC(Oc2ccc(C(=O)CCc3ccccc3)cc2)N1 (stereo unspecified)
10,1.81,O=C1CC(Sc2ccccn2)N1 (stereo unspecified)
11,3.4,CCOC(=O)CN1C(=O)CC1Sc1ccc2ccccc2c1 (stereo unspecified)
12,2.61,O=C1CC(Oc2ccc(-c3ccccc3)cc2)N1 (stereo unspecified)
13,3.08,O=C1CC(Oc2c3ccccc3cc3ccccc23)N1 (stereo unspecified)
14,2.14,O=C1CC(Oc2ccc(C(=O)c3ccccc3)cc2)N1 (stereo unspecified)
15,1.85,O=C1CC(Oc2ccc([N+](=O)[O-])cc2)N1 (stereo unspecified)
16,2.29,O=C1CC(Oc2ccc3ccccc3c2)N1 (stereo unspecified)
17,3.3,CCOC(=O)CN1C(=O)CC1Oc1ccc(C(=O)C=Cc2ccccc2)cc1 (stereo unspecified)
18,2.62,O=C1CC(Sc2ccccc2C(=O)OCc2ccccc2)N1 (stereo unspecified)
19,2.64,O=C1CC(Sc2ccc3ccccc3c2)N1 (stereo unspecified)
20,1.91,O=C1C[C@@H](Sc2ccccc2)N1
21,2.56,O=C1CC(Oc2ccc(C(=O)/C=C/c3ccccc3)cc2)N1 (stereo unspecified)

# From the SangsterLogP compilation
